Results taken from ChEMBL document CHEMBL4017488, “Glucuronides as Potential Anionic Substrates of Human Cytochrome P450 2C8 (CYP2C8)” (J Med Chem, 2017).

Experiments:
CYP2C8 [1] = target: T1, CYP2C8 (Homo sapiens, UniProt P10632); assay: (§1) Inhibition of CYP2C8 in human liver microsomes preincubated for 30 mins followed by substrate addition measured after 2 mins; type: ADME; settings: human, liver microsomes
T1 sequence (P10632 whole entry): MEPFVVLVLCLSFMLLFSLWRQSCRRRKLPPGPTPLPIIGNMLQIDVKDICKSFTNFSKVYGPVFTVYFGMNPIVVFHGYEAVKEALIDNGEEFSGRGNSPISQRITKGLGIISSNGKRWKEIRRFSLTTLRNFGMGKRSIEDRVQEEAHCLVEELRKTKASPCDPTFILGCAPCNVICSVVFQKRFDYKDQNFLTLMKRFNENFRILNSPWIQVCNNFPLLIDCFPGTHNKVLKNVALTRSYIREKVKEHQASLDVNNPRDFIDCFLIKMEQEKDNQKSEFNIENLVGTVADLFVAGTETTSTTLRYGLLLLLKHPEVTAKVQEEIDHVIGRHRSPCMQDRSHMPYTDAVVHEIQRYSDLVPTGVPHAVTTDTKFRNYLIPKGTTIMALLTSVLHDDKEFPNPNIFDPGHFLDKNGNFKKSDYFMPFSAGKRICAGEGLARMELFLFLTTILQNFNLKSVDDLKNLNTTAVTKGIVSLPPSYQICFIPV

Cytochrome P450 2C8 [2] = target: T2, Cytochrome P450 2C8 (Homo sapiens, UniProt P10632); assay: as §1; type: ADME
T2 sequence (P10632 whole entry): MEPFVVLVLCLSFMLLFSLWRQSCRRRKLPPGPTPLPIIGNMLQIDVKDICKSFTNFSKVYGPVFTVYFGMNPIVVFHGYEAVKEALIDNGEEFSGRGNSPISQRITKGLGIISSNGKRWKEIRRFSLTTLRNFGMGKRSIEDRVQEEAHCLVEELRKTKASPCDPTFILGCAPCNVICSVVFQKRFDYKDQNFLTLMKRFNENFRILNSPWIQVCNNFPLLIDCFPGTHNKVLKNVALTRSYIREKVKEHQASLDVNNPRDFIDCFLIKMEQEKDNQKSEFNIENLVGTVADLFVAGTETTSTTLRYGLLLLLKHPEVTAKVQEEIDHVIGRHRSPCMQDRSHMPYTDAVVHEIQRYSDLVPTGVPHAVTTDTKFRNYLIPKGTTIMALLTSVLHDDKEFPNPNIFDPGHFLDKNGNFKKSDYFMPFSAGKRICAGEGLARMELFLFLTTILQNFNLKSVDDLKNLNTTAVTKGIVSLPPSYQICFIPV

CYP2C8 [3] = target: T1, CYP2C8; assay: (§2) Time dependent inhibition of CYP2C8 in human liver microsomes after 5 mins by LC-MS/MS analysis; type: ADME; settings: human, liver microsomes
Cytochrome P450 2C8 [4] = target: T2, Cytochrome P450 2C8; assay: as §2; type: ADME
Cytochrome P450 2C8 [5] = target: T2, Cytochrome P450 2C8; assay: Reversible inhibition of CYP2C8 in human liver microsomes after 5 mins by LC-MS/MS analysis; type: ADME
CYP1A2 = target: T3, CYP1A2 (Homo sapiens, UniProt P05177); assay: (§3) Inactivation of CYP1A2 in human liver microsomes after 5 mins by LC-MS/MS analysis; type: ADME; settings: human, liver microsomes
T3 sequence (P05177 whole entry): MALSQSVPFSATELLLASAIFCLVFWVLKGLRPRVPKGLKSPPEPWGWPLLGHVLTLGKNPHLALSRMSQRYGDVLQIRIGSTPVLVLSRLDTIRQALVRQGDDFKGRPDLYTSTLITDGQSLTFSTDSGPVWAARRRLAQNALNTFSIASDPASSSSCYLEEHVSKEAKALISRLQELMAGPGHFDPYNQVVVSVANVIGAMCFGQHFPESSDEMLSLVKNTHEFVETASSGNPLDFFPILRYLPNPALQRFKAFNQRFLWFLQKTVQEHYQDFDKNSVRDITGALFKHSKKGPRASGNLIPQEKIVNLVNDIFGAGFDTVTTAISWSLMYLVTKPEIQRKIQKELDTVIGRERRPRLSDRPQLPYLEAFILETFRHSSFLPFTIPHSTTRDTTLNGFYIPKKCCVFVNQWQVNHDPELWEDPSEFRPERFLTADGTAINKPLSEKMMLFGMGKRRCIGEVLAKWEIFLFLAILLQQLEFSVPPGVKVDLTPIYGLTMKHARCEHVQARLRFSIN

Cytochrome P450 1A2 = target: T4, Cytochrome P450 1A2 (Homo sapiens, UniProt P05177); assay: as §3; type: ADME
T4 sequence (P05177 whole entry): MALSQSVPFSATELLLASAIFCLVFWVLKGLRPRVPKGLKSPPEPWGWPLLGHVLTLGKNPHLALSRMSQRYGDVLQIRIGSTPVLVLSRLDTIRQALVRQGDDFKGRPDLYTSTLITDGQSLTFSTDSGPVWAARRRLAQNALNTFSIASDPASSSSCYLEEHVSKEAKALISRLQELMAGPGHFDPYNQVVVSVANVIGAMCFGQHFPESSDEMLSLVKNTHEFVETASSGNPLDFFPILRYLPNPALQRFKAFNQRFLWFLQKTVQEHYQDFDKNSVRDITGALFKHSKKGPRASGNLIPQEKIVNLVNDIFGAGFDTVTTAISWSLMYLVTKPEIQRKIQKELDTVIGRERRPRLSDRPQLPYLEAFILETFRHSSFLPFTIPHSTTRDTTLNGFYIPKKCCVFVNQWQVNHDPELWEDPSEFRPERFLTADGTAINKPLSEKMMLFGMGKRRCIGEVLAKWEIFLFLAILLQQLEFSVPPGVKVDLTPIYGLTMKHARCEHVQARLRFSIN

Homo sapiens [6] = assay: In vivo drug metabolism in human assessed as CYP2C9-mediated 4'-hydroxydiclofinac metabolite formation; type: ADME, organism-based
[7] = In vivo drug metabolism in human assessed as UGT2B7-mediated 4'-hydroxydiclofinac acyl glucuronide level in urine; type: ADME, organism-based
[8] = In vivo drug metabolism in human assessed as CYP2C8-mediated glucuronide conjugate formation in urine by LC-MS/MS analysis; type: ADME, organism-based
Blood [9] = assay: In vivo drug metabolism in human assessed as UGT-mediated deleobuvir acyl glucuronide metabolite formation in blood at 800 mg,po administered as single dose measured up to 12 hrs; type: ADME, organism-based
Blood [10] = assay: In vivo drug metabolism in human assessed as 3-(2-(1-(2-(5-bromopyrimidin-2-yl)-3-cyclopentyl-1-methyl-1H-indole-6-carboxamido)cyclobutyl)-1-methyl-1H-benzo[d]imidazol-6-yl)propanoic acid metabolite formation in blood at 800 mg,po administered as single dose measured up to 12 hrs by radiolabled assay; type: ADME, organism-based
Cytochrome P450 2C8 [11] = target: T2, Cytochrome P450 2C8; assay: Inhibition of CYP2C8 in human liver microsomes using paclitaxel as substrate after 5 mins; type: ADME
Cytochrome P450 2C8 [12] = target: T2, Cytochrome P450 2C8; assay: Inhibition of CYP2C8 in human liver microsomes using paclitaxel as substrate preincubated for 2 to 40 mins followed by NADPH-generating system addition measured after 2 mins; type: ADME
[13] = In vivo drug metabolism in human assessed as UGT2B7-mediated gemfibrozil-1-O-beta-glucuronide metabolite levels in urine at 450 mg, po after 24 hrs by HPLC analysis; type: ADME, organism-based
[14] = In vivo drug metabolism in human assessed as CYP2C8-mediated gemfibrozil-1-O-beta-glucuronide-2'-benzyl alcohol metabolite levels in urine at 450 mg, po after 24 hrs by HPLC analysis; type: ADME, organism-based
[15] = In vivo drug metabolism in human assessed as CYP2C8-mediated gemfibrozil-1-O-beta-glucuronide-5'-benzyl alcohol metabolite levels in urine at 450 mg, po after 24 hrs by HPLC analysis; type: ADME, organism-based
Homo sapiens [16] = assay: In vivo inhibition of CYP2C8 in human assessed as reduction in gemfibrozil-1-O-glucuronide metabolite formation in plasma at 30 mg, po administered as single dose measured after 10 hrs by LC-MS/MS analysis
[17] = substrate: C[C@]12CC[C@@H]3c4ccc(O)cc4CC[C@H]3[C@@H]1CC[C@@H]2O[C@@H]1O[C@H](C(=O)O)[C@@H](O)[C@H](O)[C@H]1O; assay: Drug metabolism in human liver microsomes assessed as CYP2C8-mediated glucuronide conjugate formation per nmol of protein after 30 mins by HPLC-MS/MS analysis; type: ADME

Question: With `O=C(O)[C@H]1O[C@@H](OC(=O)[C@H](c2ccccc2Cl)N2CCc3sccc3C2)[C@H](O)[C@@H](O)[C@@H]1O` as the molecule, how does the kinact at 2 min (CYP2C8 [1]) read?
Answer: 0.000783 s⁻¹

Question: And the Ki (Cytochrome P450 2C8 [2])?
Answer: 9.9 µM

Question: For `Cn1c(C2(NC(=O)c3ccc4c(C5CCCC5)c(-c5ncc(Br)cn5)n(C)c4c3)CCC2)nc2ccc(/C=C/C(=O)O[C@@H]3O[C@H](C(=O)O)[C@@H](O)[C@H](O)[C@H]3O)cc21`, which kinact at 5 min (CYP2C8 [3]) is on record?
Answer: 0.000868 s⁻¹

Question: And the Ki (Cytochrome P450 2C8 [4])?
Answer: 0.0521 µM

Question: What about the Ki (Cytochrome P450 2C8 [5]) of the same molecule?
Answer: 0.022 µM

Question: What about the kinact at 5 min (CYP1A2) of the same molecule?
Answer: 0.000733 s⁻¹

Question: What about the Ki (Cytochrome P450 1A2) of the same molecule?
Answer: 54.6 µM

Question: With `O=C(O)Cc1ccccc1Nc1c(Cl)cccc1Cl` [DICLOFENAC] as the molecule, how does the Drug metabolism (Homo sapiens [6]) read?
Answer: 30 %ID

Question: And the Drug metabolism [7]?
Answer: 10 to 20 %ID

Question: With `CC(C)Cc1ccc(C(C)C(=O)O)cc1` (stereo not given) [IBUPROFEN] as the molecule, how does the Drug metabolism [8] read?
Answer: 10 to 15 %ID

Question: Which results are given for `Cn1c(C2(NC(=O)c3ccc4c(C5CCCC5)c(-c5ncc(Br)cn5)n(C)c4c3)CCC2)nc2ccc(/C=C/C(=O)O)cc21` [DELEOBUVIR]?
Answer: Drug metabolism (Blood [9]): 20 %ID; Drug metabolism (Blood [10]): 15 %ID

Question: For `Cc1ccc(C)c(OCCCC(C)(C)C(=O)O[C@@H]2O[C@H](C(=O)O)[C@@H](O)[C@H](O)[C@H]2O)c1`, which IC50 (Cytochrome P450 2C8 [11]) is on record?
Answer: 24 µM

Question: And the Ki (Cytochrome P450 2C8 [12])?
Answer: 52 µM

Question: What does the source list for `Cc1ccc(C)c(OCCCC(C)(C)C(=O)O)c1` [GEMFIBROZIL]?
Answer: Drug metabolism [13]: 32 %ID; Drug metabolism [14]: 20 %ID; Drug metabolism [15]: 20 %ID; inhibition (INH) (Homo sapiens [16]): 50%

B1: Cytochrome P450 2C8 (Homo sapiens) (protein)
chain: MEPFVVLVLCLSFMLLFSLWRQSCRRRKLPPGPTPLPIIGNMLQIDVKDICKSFTNFSKVYGPVFTVYFGMNPIVVFHGYEAVKEALIDNGEEFSGRGNSPISQRITKGLGIISSNGKRWKEIRRFSLTTLRNFGMGKRSIEDRVQEEAHCLVEELRKTKASPCDPTFILGCAPCNVICSVVFQKRFDYKDQNFLTLMKRFNENFRILNSPWIQVCNNFPLLIDCFPGTHNKVLKNVALTRSYIREKVKEHQASLDVNNPRDFIDCFLIKMEQEKDNQKSEFNIENLVGTVADLFVAGTETTSTTLRYGLLLLLKHPEVTAKVQEEIDHVIGRHRSPCMQDRSHMPYTDAVVHEIQRYSDLVPTGVPHAVTTDTKFRNYLIPKGTTIMALLTSVLHDDKEFPNPNIFDPGHFLDKNGNFKKSDYFMPFSAGKRICAGEGLARMELFLFLTTILQNFNLKSVDDLKNLNTTAVTKGIVSLPPSYQICFIPV
Question: What does the source list for B1?
Answer: Km [17]: 88 µM; Vmax [17]: 0.00186 µmol/min
